Target: T1, OTUD3 (Homo sapiens, UniProt Q5T2D3)
T1 sequence (Q5T2D3 1-398): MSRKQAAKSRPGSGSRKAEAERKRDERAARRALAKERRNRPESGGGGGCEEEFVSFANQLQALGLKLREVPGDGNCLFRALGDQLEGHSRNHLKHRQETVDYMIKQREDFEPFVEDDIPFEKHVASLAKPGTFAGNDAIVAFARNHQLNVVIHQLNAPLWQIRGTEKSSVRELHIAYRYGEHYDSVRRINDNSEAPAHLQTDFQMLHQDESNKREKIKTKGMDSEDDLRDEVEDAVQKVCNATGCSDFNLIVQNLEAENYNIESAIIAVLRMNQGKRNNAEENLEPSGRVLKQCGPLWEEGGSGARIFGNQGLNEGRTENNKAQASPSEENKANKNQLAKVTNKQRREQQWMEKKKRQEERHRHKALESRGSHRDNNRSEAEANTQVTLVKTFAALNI
Assay: microscale thermophoresis (MST) with labeled OTUD3; supported by in vitro K48 di-ubiquitin cleavage assay with purified OTUD3 OTU (aa […]) at […] Rolapitant
Assay type: binding

SMILES: C[C@@H](OC[C@@]1(c2ccccc2)CC[C@]2(CCC(=O)N2)CN1)c1cc(C(F)(F)F)cc(C(F)(F)F)c1 [Rolapitant]
- microscale thermophoresis (MST) with labeled OTUD3; supported by in vitro K48 di: MST (microscale thermophoresis) assays shown that OTUD3 could directly bind to Rolapitant in vitro

From article PMC10967203, “Rolapitant treats lung cancer by targeting deubiquitinase OTUD3” (Cell Communication and Signaling : CCS, 2024)
